Measurements: ChEMBL document CHEMBL6087437 (J Med Chem, 2025)
Calls of active or inactive are those of the source. No cut-off for these calls is given here.

How the values were obtained:
Sudan ebolavirus = assay: Antiviral activity against pseudotyped Sudan ebolavirus expressing glycoprotein infected in human A549 cells assessed as inhibition of viral entry incubated for 48 hrs by Neolite reporter gene assay; type: functional, organism-based; settings: A549, 48 h
Tai Forest ebolavirus = assay: Antiviral activity against pseudotyped Tai Forest ebolavirus expressing glycoprotein infected in human A549 cells assessed as inhibition of viral entry incubated for 48 hrs by Neolite reporter gene assay; type: functional, organism-based; settings: A549, 48 h
Ebolavirus [1] = assay: Binding affinity to Ebolavirus glycoprotein by SPR analysis
Ebolavirus [2] = assay: Antiviral activity against pseudotyped Ebola virus expressing glycoprotein infected in human A549 cells assessed as inhibition of viral entry incubated for 48 hrs by Neolite reporter gene assay; type: functional, organism-based; settings: Orthoebolavirus, A549, 48 h
[3] = Selectivity index, ratio of CC50 for human HeLa cells to EC50 for antiviral activity against wildtype Ebolavirus infected in human HeLa cells; type: toxicity, cell-based; settings: read-out: Ratio CC50/EC50
Ebolavirus [4] = assay: Antiviral activity against wildtype Ebola virus infected in human HeLa cells incubated for 40 hrs by Hoechst 33342 staining based Cytation-1 automated microscopic analysis; type: functional, organism-based; settings: Orthoebolavirus
Marburgvirus = assay: Antiviral activity against pseudotyped Marburg virus expressing glycoprotein infected in human A549 cells assessed as inhibition of viral entry incubated for 48 hrs by Neolite reporter gene assay; type: functional, organism-based; settings: Orthomarburgvirus, A549, 48 h
Bundibugyo virus = assay: Antiviral activity against pseudotyped Bundibugyo ebolavirus expressing glycoprotein infected in human A549 cells assessed as inhibition of viral entry incubated for 48 hrs by Neolite reporter gene assay; type: functional, organism-based; settings: A549, 48 h
Zaire ebolavirus = assay: Antiviral activity against pseudotyped Zaire ebolavirus expressing glycoprotein infected in human A549 cells assessed as inhibition of viral entry incubated for 48 hrs by Neolite reporter gene assay; type: functional, organism-based; settings: A549, 48 h
[5] = Selectivity index, ratio of CC50 for human A549 cells to EC50 for pseudotyped Ebola virus expressing glycoprotein infected in human A549 cells; type: toxicity, cell-based; settings: read-out: Ratio CC50/EC50
Reston ebolavirus = assay: Antiviral activity against pseudotyped Reston ebolavirus expressing glycoprotein infected in human A549 cells assessed as inhibition of viral entry incubated for 48 hrs by Neolite reporter gene assay; type: functional, organism-based; settings: A549, 48 h
HeLa = assay: Cytotoxicity against human HeLa cells by Celltiter-Glo luminescent cell viability assay; type: toxicity, cell-based
[6] = Metabolic stability in BALB/c mouse liver microsomes assessed as parent compound remaining measured after 60 mins in presence of NADPH by LC-MS/MS analysis; type: ADME, Microsome; settings: read-out: Stability
[7] = Half-life in female C57BL/6J mouse at 25 mg/kg, ip; type: ADME, organism-based; settings: in vivo
[8] = Stability in human plasma assessed as parent compound remaining at 2 uM measured after 60 mins by LC-MS/MS analysis; type: ADME, cell-free; settings: read-out: Stability
[9] = Half-life in female C57BL/6J mouse at 50 mg/kg, ip; type: ADME, organism-based; settings: in vivo
[10] = Clearance in female C57BL/6J mouse at 50 mg/kg, ip; type: ADME, organism-based; settings: in vivo
[11] = biological target: Voltage-gated inwardly rectifying potassium channel KCNH2 (Homo sapiens, UniProt Q12809); assay: Inhibition of human ERG; type: toxicity
CYP2C9 = CYP2C9 (Homo sapiens, UniProt P11712); assay: Inhibition of CYP2C9 in human liver microsomes using tolbutamide as substrate at 10 uM preincubated for 5 mins followed by substrate addition and measured after 20 mins by LC-MS analysis relative to control; type: ADME, Microsome; settings: probe tolbutamide, time 25 min
[12] = AUC in female C57BL/6J mouse at 25 mg/kg, ip; type: ADME, organism-based; settings: in vivo
[13] = Cmax in female C57BL/6J mouse at 50 mg/kg, ip; type: ADME, organism-based; settings: in vivo
[14] = Metabolic stability in human liver microsomes assessed as parent compound remaining measured after 60 mins in presence of NADPH by LC-MS/MS analysis; type: ADME, Microsome; settings: read-out: Stability
[15] = AUC in female C57BL/6J mouse at 50 mg/kg, ip; type: ADME, organism-based; settings: in vivo
[16] = Cmax in female C57BL/6J mouse at 25 mg/kg, ip; type: ADME, organism-based; settings: in vivo
[17] = Toxicity in female C57BL/6J mouse assessed as adverse effect at 25 to 50 mg/kg, ip; type: organism-based; settings: in vivo, dose 25-50 mg/kg
CYP3A4 = CYP3A4 (Homo sapiens, UniProt P08684); assay: Inhibition of CYP3A4 in human liver microsomes using midazolam as substrate at 10 uM preincubated for 5 mins followed by substrate addition and measured after 20 mins by LC-MS analysis relative to control; type: ADME, Microsome; settings: probe midazolam, time 25 min
CYP2D6 = CYP2D6 (Homo sapiens, UniProt P10635); assay: Inhibition of CYP2D6 in human liver microsomes using dextromethorphan as substrate at 10 uM preincubated for 5 mins followed by substrate addition and measured after 20 mins by LC-MS analysis relative to control; type: ADME, Microsome; settings: probe dextromethorphan, time 25 min
CYP1A2 = biological target: T1, CYP1A2 (Homo sapiens, UniProt P05177); assay: Inhibition of CYP1A2 in human liver microsomes using phenacetin as substrate at 10 uM preincubated for 5 mins followed by substrate addition and measured after 20 mins by LC-MS analysis relative to control; type: ADME, Microsome; settings: probe phenacetin, time 25 min
T1 sequence (P05177 whole entry): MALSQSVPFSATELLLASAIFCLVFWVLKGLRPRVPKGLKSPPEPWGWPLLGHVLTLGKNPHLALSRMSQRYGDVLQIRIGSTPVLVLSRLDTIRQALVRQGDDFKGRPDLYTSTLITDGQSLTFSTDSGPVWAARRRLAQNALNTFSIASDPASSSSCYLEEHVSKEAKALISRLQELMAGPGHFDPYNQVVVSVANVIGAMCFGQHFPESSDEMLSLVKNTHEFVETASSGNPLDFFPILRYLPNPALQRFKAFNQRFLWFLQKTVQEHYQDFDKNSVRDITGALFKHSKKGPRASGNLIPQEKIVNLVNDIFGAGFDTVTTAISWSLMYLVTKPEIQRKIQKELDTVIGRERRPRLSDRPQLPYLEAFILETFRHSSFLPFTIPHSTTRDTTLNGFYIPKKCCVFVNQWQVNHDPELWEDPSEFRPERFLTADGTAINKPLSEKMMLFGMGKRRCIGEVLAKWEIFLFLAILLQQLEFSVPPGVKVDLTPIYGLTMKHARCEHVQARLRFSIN

[18] = Tmax in female C57BL/6J mouse at 50 mg/kg, ip; type: ADME, organism-based; settings: in vivo
[19] = Clearance in female C57BL/6J mouse at 25 mg/kg, ip; type: ADME, organism-based; settings: in vivo
[20] = Stability in mouse plasma assessed as parent compound remaining at 2 uM measured after 60 mins by LC-MS/MS analysis; type: ADME, cell-free; settings: read-out: Stability
[21] = Tmax in female C57BL/6J mouse at 25 mg/kg, ip; type: ADME, organism-based; settings: in vivo
Influenza A virus = assay: Antiviral activity against pseudotyped Influenza A virus A/Goose/Qinghai/59/05(H5N1) infected in human A549 cells assessed as inhibition of viral entry incubated for 48 hrs by Neolite reporter gene assay; type: functional, organism-based
[22] = system: Vesicular stomatitis virus; assay: Antiviral activity against pseudotyped vesicular stomatitis virus expressing glycoprotein infected in human A549 cells assessed as inhibition of viral entry incubated for 48 hrs by Neolite reporter gene assay; type: functional, organism-based
A549 = assay: Induction of phospholipidosis in human A549 cells at 10 uM incubated for 48 hrs by Hoechst 33342 staining based fluorescence imaging analysis; type: functional, cell-based

Sequence of Voltage-gated inwardly rectifying potassium channel KCNH2 (Q12809 whole entry): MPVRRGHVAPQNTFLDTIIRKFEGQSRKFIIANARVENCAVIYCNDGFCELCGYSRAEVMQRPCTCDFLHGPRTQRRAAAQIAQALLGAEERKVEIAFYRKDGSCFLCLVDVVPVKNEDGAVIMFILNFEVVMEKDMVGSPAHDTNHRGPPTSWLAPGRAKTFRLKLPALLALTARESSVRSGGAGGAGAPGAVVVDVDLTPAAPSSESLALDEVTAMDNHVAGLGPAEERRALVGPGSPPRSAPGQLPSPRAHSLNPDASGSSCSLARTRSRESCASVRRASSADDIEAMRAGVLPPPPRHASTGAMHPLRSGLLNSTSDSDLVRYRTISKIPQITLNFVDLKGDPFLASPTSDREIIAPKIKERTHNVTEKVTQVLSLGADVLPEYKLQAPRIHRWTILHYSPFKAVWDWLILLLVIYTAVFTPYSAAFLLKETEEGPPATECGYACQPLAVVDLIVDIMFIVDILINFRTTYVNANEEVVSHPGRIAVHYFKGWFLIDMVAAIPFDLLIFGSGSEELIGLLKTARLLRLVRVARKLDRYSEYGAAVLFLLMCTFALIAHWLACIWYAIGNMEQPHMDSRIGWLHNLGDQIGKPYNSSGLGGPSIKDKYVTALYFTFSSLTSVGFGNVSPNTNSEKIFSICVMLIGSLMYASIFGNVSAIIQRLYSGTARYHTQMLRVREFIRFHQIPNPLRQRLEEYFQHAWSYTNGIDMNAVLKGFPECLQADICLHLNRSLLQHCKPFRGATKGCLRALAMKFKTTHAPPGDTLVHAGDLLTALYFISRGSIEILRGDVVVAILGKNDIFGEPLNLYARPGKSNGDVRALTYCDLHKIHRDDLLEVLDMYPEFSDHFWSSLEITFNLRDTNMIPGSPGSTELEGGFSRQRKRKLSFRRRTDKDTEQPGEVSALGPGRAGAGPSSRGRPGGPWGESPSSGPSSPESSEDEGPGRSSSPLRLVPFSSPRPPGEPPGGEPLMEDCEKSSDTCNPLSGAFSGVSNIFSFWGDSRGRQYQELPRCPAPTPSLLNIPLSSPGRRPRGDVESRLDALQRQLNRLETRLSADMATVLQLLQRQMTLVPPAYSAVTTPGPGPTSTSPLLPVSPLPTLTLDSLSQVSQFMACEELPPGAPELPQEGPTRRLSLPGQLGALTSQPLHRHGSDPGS
Sequence of CYP2D6 (P10635 whole entry): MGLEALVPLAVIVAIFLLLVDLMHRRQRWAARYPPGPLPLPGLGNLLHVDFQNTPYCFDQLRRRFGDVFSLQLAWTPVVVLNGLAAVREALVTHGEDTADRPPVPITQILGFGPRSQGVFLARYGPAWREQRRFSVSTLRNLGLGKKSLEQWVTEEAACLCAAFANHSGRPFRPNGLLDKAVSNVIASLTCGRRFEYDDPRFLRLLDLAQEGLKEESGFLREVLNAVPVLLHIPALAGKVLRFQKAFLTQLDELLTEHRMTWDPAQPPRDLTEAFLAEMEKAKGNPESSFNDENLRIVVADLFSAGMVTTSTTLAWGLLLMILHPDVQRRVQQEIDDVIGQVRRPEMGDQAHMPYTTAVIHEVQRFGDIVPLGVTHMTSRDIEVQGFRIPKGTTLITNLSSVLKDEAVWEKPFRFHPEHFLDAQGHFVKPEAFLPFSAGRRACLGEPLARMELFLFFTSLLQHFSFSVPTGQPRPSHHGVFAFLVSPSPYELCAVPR
Sequence of CYP2C9 (P11712 whole entry): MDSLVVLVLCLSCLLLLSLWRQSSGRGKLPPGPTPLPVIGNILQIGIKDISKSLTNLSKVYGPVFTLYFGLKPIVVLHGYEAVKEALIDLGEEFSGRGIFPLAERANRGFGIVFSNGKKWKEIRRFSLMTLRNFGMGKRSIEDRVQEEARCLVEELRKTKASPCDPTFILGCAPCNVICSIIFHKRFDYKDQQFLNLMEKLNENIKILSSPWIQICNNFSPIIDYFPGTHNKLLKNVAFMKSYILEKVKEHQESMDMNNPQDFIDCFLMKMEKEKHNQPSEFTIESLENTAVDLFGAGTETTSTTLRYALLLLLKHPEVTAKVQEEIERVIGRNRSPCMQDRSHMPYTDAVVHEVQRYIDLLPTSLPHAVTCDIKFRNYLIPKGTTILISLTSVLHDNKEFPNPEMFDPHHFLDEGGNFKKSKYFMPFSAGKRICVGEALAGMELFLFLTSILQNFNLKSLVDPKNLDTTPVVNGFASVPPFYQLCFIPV
Sequence of CYP3A4 (P08684 whole entry): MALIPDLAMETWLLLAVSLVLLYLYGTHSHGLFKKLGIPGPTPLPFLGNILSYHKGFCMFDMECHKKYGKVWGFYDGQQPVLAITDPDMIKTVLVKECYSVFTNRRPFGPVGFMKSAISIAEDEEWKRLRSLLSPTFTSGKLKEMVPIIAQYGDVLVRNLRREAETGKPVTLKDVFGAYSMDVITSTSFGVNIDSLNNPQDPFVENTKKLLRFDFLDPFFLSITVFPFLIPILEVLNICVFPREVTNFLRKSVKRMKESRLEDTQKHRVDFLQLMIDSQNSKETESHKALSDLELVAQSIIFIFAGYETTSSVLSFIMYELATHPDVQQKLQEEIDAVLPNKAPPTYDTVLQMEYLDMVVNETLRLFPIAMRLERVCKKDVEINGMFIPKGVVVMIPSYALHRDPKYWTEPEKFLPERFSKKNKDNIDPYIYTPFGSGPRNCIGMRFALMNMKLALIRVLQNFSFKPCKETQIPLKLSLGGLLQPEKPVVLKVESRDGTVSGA

## CC1CCN(c2ccc(NC(=O)c3ccc(CN4CCOCC4)cc3)cc2C(F)(F)F)CC1
Sudan ebolavirus
  EC50: 1280 nM
Tai Forest ebolavirus
  EC50: 170 nM
Ebolavirus [1]
  Activity: Active
Ebolavirus [2]
  EC50: 220 nM
[3]
  selectivity ratio: 77
Ebolavirus [4]
  EC50: 540 nM
Marburgvirus
  EC50: 5280 nM
Bundibugyo virus
  EC50: 3670 nM
Zaire ebolavirus
  EC50: 220 nM
[5]
  selectivity ratio: 129
Reston ebolavirus
  EC50: 740 nM
HeLa
  CC50: 42700 nM

## O=C(Nc1ccc(N2CCC3(CCC3)CC2)c(C(F)(F)F)c1)c1ccc(CN2C[C@@H]3C[C@H]2CO3)nc1
Sudan ebolavirus
  EC50: 2140 nM
[6]
  remaining at 1 h: 77%
Tai Forest ebolavirus
  EC50: 290 nM
[7]
  half-life: 3.4 h
[8]
  remaining at 1 h, 2 µM: ~100%
[9]
  half-life: 4.8 h
Ebolavirus [2]
  EC50: 120 nM
[10]
  CL/F: 24.3 mL/min/kg
[11]
  IC50: 1500 nM
CYP2C9
  inhibition at 20 min, 10 µM: 66.4%
[12]
  AUC: 14300 ng·h/mL
Ebolavirus [4]
  EC50: 440 nM
[13]
  Cmax: 6790 ng/mL
[14]
  remaining at 1 h: 60%
Marburgvirus
  EC50: 680 nM
Bundibugyo virus
  EC50: 840 nM
Zaire ebolavirus
  EC50: 120 nM
[15]
  AUC: 34400 ng·h/mL
[16]
  Cmax: 2170 ng/mL
[17]
  Activity: Non-toxic
CYP3A4
  inhibition at 20 min, 10 µM: 4.9%
CYP2D6
  inhibition at 20 min, 10 µM: 35.2%
CYP1A2
  inhibition at 20 min, 10 µM: 5.4%
[18]
  Tmax: 1 h
Reston ebolavirus
  EC50: 300 nM
[19]
  CL/F: 29.2 mL/min/kg
[20]
  remaining at 1 h, 2 µM: 90%
[21]
  Tmax: 0.5 h
HeLa
  CC50: 19100 nM
Influenza A virus
  inhibition: Weak_effect
[22]
  inhibition: Weak_effect

## O=C(Nc1ccc(N2CCC3(CCC3)CC2)c(C(F)(F)F)c1)c1ccc(C(=O)N2C[C@@H]3C[C@H]2CO3)nc1
Sudan ebolavirus
  EC50: 890 nM
[6]
  remaining at 1 h: 84%
Tai Forest ebolavirus
  EC50: 110 nM
[7]
  half-life: 1.4 h
[8]
  remaining at 1 h, 2 µM: ~100%
[9]
  half-life: 1.9 h
Ebolavirus [2]
  EC50: 160 nM
[10]
  CL/F: 14.4 mL/min/kg
[11]
  IC50: 9400 nM
CYP2C9
  inhibition at 20 min, 10 µM: 56.6%
[12]
  AUC: 20700 ng·h/mL
[3]
  selectivity ratio: 65
Ebolavirus [4]
  EC50: 730 nM
[13]
  Cmax: 14600 ng/mL
[14]
  remaining at 1 h: 83.6%
Marburgvirus
  EC50: 2240 nM
Bundibugyo virus
  EC50: 210 nM
Zaire ebolavirus
  EC50: 160 nM
[15]
  AUC: 57800 ng·h/mL
[16]
  Cmax: 5370 ng/mL
[5]
  selectivity ratio: 258
CYP2D6
  inhibition at 20 min, 10 µM: 24.9%
CYP1A2
  inhibition at 20 min, 10 µM: 13.5%
[18]
  Tmax: 0.7 h
Reston ebolavirus
  EC50: 210 nM
[19]
  CL/F: 20.2 mL/min/kg
[20]
  remaining at 1 h, 2 µM: 97%
[21]
  Tmax: 1.7 h
A549
  Activity: inactive
HeLa
  CC50: 47700 nM
Influenza A virus
  inhibition: Weak_effect
[22]
  inhibition: Weak_effect
